Laboratory results taken from ChEMBL document CHEMBL3039007, “Structure-based identification of OATP1B1/3 inhibitors” (Mol Pharmacol, 2013).
pIC50, pKi: −log10 of the molar value.

Legend:
[1] = target: T1, Solute carrier organic anion transporter family member 1B1 (Homo sapiens, UniProt Q9Y6L6)
T1 sequence (Q9Y6L6 whole entry): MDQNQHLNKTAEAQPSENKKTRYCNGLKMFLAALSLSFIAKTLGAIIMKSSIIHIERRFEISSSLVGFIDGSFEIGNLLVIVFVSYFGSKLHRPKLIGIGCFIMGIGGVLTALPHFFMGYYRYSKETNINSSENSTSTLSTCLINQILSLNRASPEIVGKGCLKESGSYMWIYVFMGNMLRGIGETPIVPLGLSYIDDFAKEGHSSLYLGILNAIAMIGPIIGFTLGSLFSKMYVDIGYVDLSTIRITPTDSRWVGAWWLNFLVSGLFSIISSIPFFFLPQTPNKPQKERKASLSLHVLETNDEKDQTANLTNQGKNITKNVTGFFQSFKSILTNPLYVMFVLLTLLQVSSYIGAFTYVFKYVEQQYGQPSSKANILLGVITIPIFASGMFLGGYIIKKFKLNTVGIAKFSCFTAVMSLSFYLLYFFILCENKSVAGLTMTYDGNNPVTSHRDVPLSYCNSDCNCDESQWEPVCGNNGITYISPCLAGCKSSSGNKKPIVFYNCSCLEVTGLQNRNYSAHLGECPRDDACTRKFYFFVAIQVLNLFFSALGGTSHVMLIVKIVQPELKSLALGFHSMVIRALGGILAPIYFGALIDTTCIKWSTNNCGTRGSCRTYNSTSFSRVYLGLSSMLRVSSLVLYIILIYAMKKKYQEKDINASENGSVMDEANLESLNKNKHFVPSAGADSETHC

[2] = target: T1, Solute carrier organic anion transporter family member 1B1; remark: listed apart in the source
[3] = target: T2, Solute carrier organic anion transporter family member 1B3 (Homo sapiens, UniProt Q9NPD5)
T2 sequence (Q9NPD5 whole entry): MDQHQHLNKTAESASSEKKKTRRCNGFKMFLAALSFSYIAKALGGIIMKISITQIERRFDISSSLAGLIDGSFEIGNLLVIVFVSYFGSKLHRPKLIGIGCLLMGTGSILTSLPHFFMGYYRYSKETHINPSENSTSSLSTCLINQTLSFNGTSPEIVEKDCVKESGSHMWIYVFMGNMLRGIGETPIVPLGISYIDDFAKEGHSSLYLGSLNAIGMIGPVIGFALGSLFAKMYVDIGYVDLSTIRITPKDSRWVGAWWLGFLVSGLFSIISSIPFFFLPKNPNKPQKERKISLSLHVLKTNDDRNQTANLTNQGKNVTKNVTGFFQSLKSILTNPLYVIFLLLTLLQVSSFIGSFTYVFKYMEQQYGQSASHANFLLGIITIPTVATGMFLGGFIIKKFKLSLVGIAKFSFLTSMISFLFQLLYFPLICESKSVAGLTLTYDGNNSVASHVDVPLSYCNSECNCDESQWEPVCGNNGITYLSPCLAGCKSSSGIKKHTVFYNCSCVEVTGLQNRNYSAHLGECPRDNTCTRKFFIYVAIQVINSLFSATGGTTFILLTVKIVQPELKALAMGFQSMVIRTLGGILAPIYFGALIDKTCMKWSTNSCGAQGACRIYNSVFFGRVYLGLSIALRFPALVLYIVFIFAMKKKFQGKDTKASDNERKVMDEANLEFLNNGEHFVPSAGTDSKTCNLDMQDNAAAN

[4] = target: T2, Solute carrier organic anion transporter family member 1B3; remark: listed apart in the source
[5] = target: T1, Solute carrier organic anion transporter family member 1B1; details: chinese hamster, cho, 10 µM
[6] = target: T2, Solute carrier organic anion transporter family member 1B3; details: chinese hamster, cho, 10 µM

Row | SMILES | pIC50 [1] | pKi [2] | pIC50 [3] | pKi [4] | residual activity [5] [%] | residual activity [6] [%]
1 | COC(=O)C[C@H]1C2(C)CC34OC5(C)O[C@@]6([C@H](OC)C(OC(=O)C(C)C)[C@]7(C)C(/C(=C(/OC)C(C)C)C(=O)O[C@H]7c7ccoc7)[C@@]6(O5)[C@H](OC)[C@@]3(OC)C2OC(C)=O)[C@]14C (stereo partly drawn) [CHUKRASIN METHYL ETHER] | 6.12 | 6.38 | 6.14 | 6.25 | 6.829 | 3.762
2 | C[C@H]1CC[C@@]2(OC1)O[C@H]1C[C@H]3[C@@H]4CC[C@@H]5C[C@@H](O)CC[C@]5(C)[C@H]4CC[C@]3(C)[C@H]1[C@@H]2C [SARSASAPOGENIN] | 6.61 | 6.89 | 6.98 | 7.10 | 50.78 | 25.69
3 | CC1(C)CC[C@]2(C(=O)O)CC[C@]3(C)C(=CC[C@@H]4[C@@]5(C)CC[C@H](O)[C@@](C)(CO)[C@@H]5CC[C@]43C)[C@@H]2C1 [HEDERAGENIN] | 5.42 | 5.68 | 6.05 | 6.17 | 40.18 | 18.59
4 | O=C1C=CC(=C(c2ccc(O)cc2)c2ccc(O)cc2)C=C1 [AURIN] | 5.58 | 5.84 | 5.39 | 5.50 | 4.068 | 20.35
5 | O=c1c(-c2ccc(O)cc2)coc2cc(O)cc(O)c12 [GENISTEIN] | 5.04 | 5.30 | 5.41 | 5.53 | 95.56 | 39.06
6 | CC(=O)O[C@@H]1C[C@@H]2C(C)(C)C(=O)C=C[C@@]2(C)[C@@H]2CC[C@@]3(C)C(=CC(=O)O[C@@H]3c3ccoc3)[C@@]12C | 5.82 | 6.08 | 5.42 | 5.54 | 8.693 | 22.73
7 | CC(=O)O[C@@H]1C[C@@H]2C(C)(C)[C@H](O)C=C[C@@]2(C)[C@@H]2CC[C@@]3(C)C(=CC(=O)O[C@@H]3c3ccoc3)[C@@]12C | 5.66 | 5.92 | 5.43 | 5.54 | 6.132 | 23.16
8 | CCCc1nc2c(C)cc(-c3nc4ccccc4n3C)cc2n1Cc1ccc(-c2ccccc2C(=O)O)cc1 | 5.73 | 5.99 | 5.90 | 6.02 | 77.57 | 41.88
9 | C=C1[C@@H]([C@@]2(C)[C@@H](OC(C)=O)CC(=O)O[C@](C)(COC(C)=O)[C@@H]2C(=O)OC)[C@@H](OC=O)[C@H](OC(=O)[C@H](O)[C@H](C)CC)[C@@]2(C)[C@H](c3ccoc3)CC(=O)[C@]12O [PRIEURIANIN] | 5.63 | 5.89 | 5.47 | 5.58 | 22.79 | 25.49
10 | C=C1[C@@H]2CC[C@@]3(C)[C@H](c4ccoc4)OC(=O)C[C@]13O[C@H]1C[C@H](OC(C)=O)C(C)(C)[C@H](CC(=O)OC)[C@]12C | 6.03 | 6.29 | 5.35 | 5.46 | 13.98 | 21.87
11 | CC(=O)O[C@@H]1C[C@H]2C(C)(C)C(=O)CC[C@]2(C)[C@H]2CC[C@]3(C)C(=CC(=O)O[C@H]3c3ccoc3)[C@@]21C | 5.45 | 5.71 | 5.11 | 5.22 | 22.81 | 54.65
12 | CCCCCc1c2c(cc(O)c1C(=O)O)OC(=O)c1c(cc(OC)cc1C(=O)CCCC)O2 [LOBARIC ACID] | 6.14 | 6.40 | 5.79 | 5.90 | 18.31 | 7.572
13 | CC(=O)O[C@@H]1C[C@@]2(C)[C@H](c3ccoc3)C[C@H]3O[C@]32[C@]2(C)C(=O)C(O)=C3C(C)(C)C(=O)C=C[C@]3(C)C12 (stereo partly drawn) [ANTHOTHECOL] | 5.52 | 5.78 | 5.46 | 5.58 | 20.37 | 12.42
14 | COc1c(CC=C(C)C)c2c(c3oc(=O)c(-c4ccc(O)cc4)c(O)c13)C=CC(C)(C)O2 [SCANDENIN] | 5.97 | 6.23 | 6.13 | 6.25 | 13.79 | 9.001
15 | O=C(OC[C@H]1O[C@@H](OC(=O)c2cc(O)c(O)c(OC(=O)c3cc(O)c(O)c(O)c3)c2)[C@H](OC(=O)c2cc(O)c(O)c(OC(=O)c3cc(O)c(O)c(O)c3)c2)[C@@H](OC(=O)c2cc(O)c(O)c(OC(=O)c3cc(O)c(O)c(O)c3)c2)[C@@H]1OC(=O)c1cc(O)c(O)c(OC(=O)c2cc(O)c(O)c(O)c2)c1)c1cc(O)c(O)c(OC(=O)c2cc(O)c(O)c(O)c2)c1 [TANNIC ACID] | 5.58 | 5.84 | 5.38 | 5.49 | 18.66 | 10.59
16 | Cc1onc(-c2c(Cl)cccc2Cl)c1C(=O)N[C@@H]1C(=O)N2[C@@H]1SC(C)(C)[C@@H]2C(=O)[O-].O.[Na+] [DICLOXACILLIN SODIUM] | 6.17 | 6.43 | 5.70 | 5.81 | 11.45 | 9.757
17 | CCCCC/C=C\C/C=C\C/C=C\C/C=C\CCCC(=O)O [ARACHIDONIC ACID] | 6.22 | 6.48 | 5.97 | 6.09 | 23.4 | 5.402
18 | CCCCCCCCCc1ccc(OCCOCCOCCOCCOCCOCCOCCOCCOCCO)cc1 [NONOXYNOL 9] | 5.46 | 5.72 | 5.43 | 5.54 | 32.74 | 27.96
19 | C=C1[C@@H]2CC[C@@]3(C)[C@H](c4ccoc4)OC(=O)C[C@]13O[C@H]1CC(=O)C(C)(C)[C@H](C(OC(C)=O)C(=O)OC)[C@]12C (stereo partly drawn) [METHYL 6-ACETOXYANGOLENSATE] | 5.84 | 6.10 | 5.42 | 5.53 | 11.95 | 34.99
20 | CC(=O)O[C@H]1C[C@@H](OC(C)=O)C(C)(C)[C@@H]2C[C@@H](O)[C@@]3(C)[C@H](CC[C@]4(C)[C@@H](c5ccoc5)OC(=O)[C@H]5O[C@@]534)[C@@]12C | 6.01 | 6.27 | 5.53 | 5.64 | 14.28 | 9.535
21 | CC(C)=CCCC1(C)C=Cc2c(O)c3c(c(CC=C(C)C)c2O1)OC12C(=CC4CC1C(C)(C)OC2(C/C=C(/C)C(=O)O)C4O)C3=O (stereo not drawn) [DIHYDROGAMBOGIC ACID] | 5.65 | 5.91 | 5.54 | 5.65 | 14.23 | 17.26
22 | CC(=O)Oc1c2c(c(CC=C(C)C)c3c1C(=O)C1=C[C@@H]4CC5C(C)(C)OC(C/C=C(\C)C(=O)O)(C4=O)[C@@]15O3)OC(C)(CCC=C(C)C)C=C2 (stereo partly drawn) [ACETYL ISOGAMBOGIC ACID] | 5.39 | 5.65 | 5.27 | 5.38 | 10.38 | 30.34
23 | CC(=O)O[C@@H]1CC[C@]2(C)[C@H](C[C@@H](OC(C)=O)[C@]3(C)C4=CC(=O)O[C@H](c5ccoc5)[C@@]4(C)CC[C@@H]23)C1(C)C | 6.09 | 6.36 | 5.85 | 5.97 | 18.95 | 8.019
